Measured values reported in US10058094B2, “Antimicrobial sanitizer compositions and methods of making the same” (priority 2013, dated 2018).

How the values were obtained:
[1] = system: Salmonella typhi ATCC 6539; assay: Chlorine equivalence test; assay type: cell-based; set-up: key to growth of organism, Subculture Series 8 / growth of organism, Subculture Series 9 / growth of organism, Subculture Series 10 / growth of organism, Subculture Series 1 / growth of organism, Subculture Series 2 / growth of organism, Subculture Series 3 / growth of organism, Subculture Series 4 / growth of organism, Subculture Series 5 / growth of organism, Subculture Series 6 / growth of organism, Subculture Series 7: growth of organism (+); no growth of organism (0); conditions: for growth of organism, Subculture Series 1 / growth of organism, Subculture Series 2 / growth of organism, Subculture Series 3 / growth of organism, Subculture Series 4 / growth of organism, Subculture Series 5 / growth of organism, Subculture Series 6 / growth of organism, Subculture Series 7 / growth of organism, Subculture Series 8 / growth of organism, Subculture Series 9 / growth of organism, Subculture Series 10: Salmonella typhi
Protocol: (§1) The Table 1 sanitizer was tested to determine its efficiency at reducing bacteria on the skin via a chlorine equivalence test. Samples were prepared of Staphylococcus aureus ATCC 6538 (7.6×10^8 colony forming units per mL of text mixture) and Salmonella typhi ATCC 6539 (1.2×10^8 colony forming units per mL of text mixture). The samples were then treated against a NaOCl control at 200 ppm, 100 ppm, and 50 ppm, as well as the sanitizer disclosed herein. Thereafter, ten subculture series were taken.

[2] = system: Staphylococcus aureus ATCC 6538; assay: Chlorine equivalence test; assay type: cell-based; set-up: key to growth of organism, Subculture Series 8 / growth of organism, Subculture Series 9 / growth of organism, Subculture Series 10 / growth of organism, Subculture Series 1 / growth of organism, Subculture Series 2 / growth of organism, Subculture Series 3 / growth of organism, Subculture Series 4 / growth of organism, Subculture Series 5 / growth of organism, Subculture Series 6 / growth of organism, Subculture Series 7: growth of organism (+); no growth of organism (0); conditions: for growth of organism, Subculture Series 1 / growth of organism, Subculture Series 2 / growth of organism, Subculture Series 3 / growth of organism, Subculture Series 4 / growth of organism, Subculture Series 5 / growth of organism, Subculture Series 6 / growth of organism, Subculture Series 7 / growth of organism, Subculture Series 8 / growth of organism, Subculture Series 9 / growth of organism, Subculture Series 10: Staphylococcus aureus
Protocol: as §1

[Na+].[O-]Cl [NaOCl]
growth of organisms over the ten subculture series ([1]; Salmonella typhi ATCC 6539, NaOCl control at 200 ppm, 100 ppm, and 50 ppm, ten subculture series): eventually showed growth of organisms
growth of organism, Subculture Series 1 ([1]; concentration 50 ppm): 0
growth of organism, Subculture Series 2 ([1]; concentration 50 ppm): 0
growth of organism, Subculture Series 3 ([1]; concentration 50 ppm): +
growth of organism, Subculture Series 4 ([1]; concentration 50 ppm): +
growth of organism, Subculture Series 5 ([1]; concentration 50 ppm): +
growth of organism, Subculture Series 6 ([1]; concentration 50 ppm): +
growth of organism, Subculture Series 7 ([1]; concentration 50 ppm): +
growth of organism, Subculture Series 8 ([1]; concentration 50 ppm): +
growth of organism, Subculture Series 9 ([1]; concentration 50 ppm): +
growth of organism, Subculture Series 10 ([1]; concentration 50 ppm): +
growth of organism, Subculture Series 1 ([1]; concentration 100 ppm): 0
growth of organism, Subculture Series 2 ([1]; concentration 100 ppm): 0
growth of organism, Subculture Series 3 ([1]; concentration 100 ppm): 0
growth of organism, Subculture Series 4 ([1]; concentration 100 ppm): +
growth of organism, Subculture Series 5 ([1]; concentration 100 ppm): +
growth of organism, Subculture Series 6 ([1]; concentration 100 ppm): +
growth of organism, Subculture Series 7 ([1]; concentration 100 ppm): +
growth of organism, Subculture Series 8 ([1]; concentration 100 ppm): +
growth of organism, Subculture Series 9 ([1]; concentration 100 ppm): +
growth of organism, Subculture Series 10 ([1]; concentration 100 ppm): +
growth of organism, Subculture Series 1 ([1]; concentration 200 ppm): 0
growth of organism, Subculture Series 2 ([1]; concentration 200 ppm): 0
growth of organism, Subculture Series 3 ([1]; concentration 200 ppm): 0
growth of organism, Subculture Series 4 ([1]; concentration 200 ppm): 0
growth of organism, Subculture Series 5 ([1]; concentration 200 ppm): 0
growth of organism, Subculture Series 6 ([1]; concentration 200 ppm): 0
growth of organism, Subculture Series 7 ([1]; concentration 200 ppm): +
growth of organism, Subculture Series 8 ([1]; concentration 200 ppm): +
growth of organism, Subculture Series 9 ([1]; concentration 200 ppm): +
growth of organism, Subculture Series 10 ([1]; concentration 200 ppm): +
growth of organisms over the ten subculture series ([2]; Staphylococcus aureus ATCC 6538, NaOCl control at 200 ppm, 100 ppm, and 50 ppm, ten subculture series): eventually showed growth of organisms
growth of organism, Subculture Series 1 ([2]; concentration 50 ppm): 0
growth of organism, Subculture Series 2 ([2]; concentration 50 ppm): +
growth of organism, Subculture Series 3 ([2]; concentration 50 ppm): +
growth of organism, Subculture Series 4 ([2]; concentration 50 ppm): +
growth of organism, Subculture Series 5 ([2]; concentration 50 ppm): +
growth of organism, Subculture Series 6 ([2]; concentration 50 ppm): +
growth of organism, Subculture Series 7 ([2]; concentration 50 ppm): +
growth of organism, Subculture Series 8 ([2]; concentration 50 ppm): +
growth of organism, Subculture Series 9 ([2]; concentration 50 ppm): +
growth of organism, Subculture Series 10 ([2]; concentration 50 ppm): +
growth of organism, Subculture Series 1 ([2]; concentration 100 ppm): 0
growth of organism, Subculture Series 2 ([2]; concentration 100 ppm): 0
growth of organism, Subculture Series 3 ([2]; concentration 100 ppm): +
growth of organism, Subculture Series 4 ([2]; concentration 100 ppm): +
growth of organism, Subculture Series 5 ([2]; concentration 100 ppm): +
growth of organism, Subculture Series 6 ([2]; concentration 100 ppm): +
growth of organism, Subculture Series 7 ([2]; concentration 100 ppm): +
growth of organism, Subculture Series 8 ([2]; concentration 100 ppm): +
growth of organism, Subculture Series 9 ([2]; concentration 100 ppm): +
growth of organism, Subculture Series 10 ([2]; concentration 100 ppm): +
growth of organism, Subculture Series 1 ([2]; concentration 200 pm): 0
growth of organism, Subculture Series 3 ([2]; concentration 200 pm): 0
growth of organism, Subculture Series 8 ([2]; concentration 200 pm): +
growth of organism, Subculture Series 10 ([2]; concentration 200 pm): +
growth of organism, Subculture Series 2 ([2]; concentration 200 ppm): 0
growth of organism, Subculture Series 4 ([2]; concentration 200 ppm): 0
growth of organism, Subculture Series 5 ([2]; concentration 200 ppm): 0
growth of organism, Subculture Series 6 ([2]; concentration 200 ppm): +
growth of organism, Subculture Series 7 ([2]; concentration 200 ppm): +
growth of organism, Subculture Series 9 ([2]; concentration 200 ppm): +
